Here are results for 14 compounds from patent publication US20140323418A1, “SELECTIVE KINASE INHIBITORS” (PORTOLA PHARMACEUTICALS, INC., priority 2011, published 2014).

Each structure is given as a SMILES string.

The assay addresses T1, full length active recombinant SYK enzyme (Homo sapiens, UniProt P43405).
T1 construct: full length active recombinant SYK enzyme (Millipore, Calif.); purchased Millipore
Nature of the assay: Inhibition of Syk tyrosine phosphorylation activity (LANCE TR-FRET kinase assay). The class given is biochemical. Conditions: 1 nM SYK, 550 nM substrate, 100 μM ATP, 1 hour room temperature.
On to `Cn1ccc2c(Nc3nc(N[C@@H]4CCCC(F)(F)[C@@H]4N)ncc3C(N)=O)cccc21` [Example 91, 2-((1R,2R)-2-amino-3,3-difluorocyclohexylamino)-4-(1-methyl-1H-indol-4-ylamino)pyrimidine-5-carboxamide], for which the IC50 lay within 10 to 100 nM. Regarding `Cc1cccc(Nc2nc(N[C@H](c3ccccc3)C3(N)CC3)ncc2C(N)=O)c1` [Example 147, (R)-2-(1-(1-aminocyclopropyl)(phenyl)methylamino)-4-(m-tolylamino)pyrimidine-5-carboxamide], the half-inhibitory concentration (IC50) was 10 to 100 nM. For `CC(C)[C@@H](Nc1ncc(C(N)=O)c(Nc2ccc3ncccc3c2)n1)C(N)=O` [Example 69, (R)-2-(1-amino-3-methyl-1-oxobutan-2-ylamino)-4-(quinolin-6-ylamino)pyrimidine-5-carboxamide], the IC50 was in the range of 10 to 100 nM. As for `Cc1ccc(Nc2ncc(C(N)=O)c(N[C@H]3CC[C@@H](N)CC3)n2)cc1` [Example 184, 4-(4-aminocyclohexylamino)-2-(p-tolylamino)pyrimidine-5-carboxamide], the 50% inhibitory concentration (IC50) lay within 10 to 100 nM. Take `CCC(Nc1ncc(C(N)=O)c(Nc2cccc(C)c2)n1)C1(N)CC1` (racemic) [Example 125, (±)-2-(1-(1-aminocyclopropyl)propylamino)-4-(m-tolylamino)pyrimidine-5-carboxamide]: the IC50 lay in the range of 1 to 10 nM. Consider `NC(=O)c1cnc(N[C@@H]2CCOC[C@@H]2N)nc1Nc1ccc2ncccc2c1` [Example 180, 2-((3R,4R)-3-aminotetrahydro-2H-pyran-4-ylamino)-4-(quinolin-6-ylamino)pyrimidine-5-carboxamide], for which the IC50 lay within 1 to 10 nM.

`COc1ccc(Nc2ncc(C(N)=O)c(N[C@H]3CC[C@@H](N)CC3)n2)cc1` [Example 185, 4-(4-aminocyclohexylamino)-2-(4-methoxyphenylamino)pyrimidine-5-carboxamide]: the 50% inhibitory concentration (IC50) fell in the range of 10 to 100 nM. As for `CN1CCCc2cc(Nc3nc(N[C@H]4CN[C@@H](CO)C4)ncc3C(N)=O)ccc21` [Example 220, 2-(((3R,5R)-5-(hydroxymethyl)pyrrolidin-3-yl)amino)-4-((1-methyl-1,2,3,4-tetrahydroquinolin-6-yl)amino)pyrimidine-5-carboxamide], the IC50 is 10 to 100 nM.

Take `NC(=O)c1cnc(N[C@H](C2CC2)C2(N)CC2)nc1Nc1cnc2ccccc2c1` [Example 152, (R)-2-(1-(1-aminocyclopropyl)(cyclopropyl)methylamino)-4-(quinolin-3-ylamino)pyrimidine-5-carboxamide]: the IC50 was 1 to 10 nM. As for `Cc1cccc(Nc2nc(N[C@@H](CN)CC(F)F)ncc2C(N)=O)c1` [Example 89, (R)-4-(m-toluidino)-2-(1-amino-4,4-difluorobutan-2-ylamino)pyrimidine-5-carboxamide], the half-inhibitory concentration (IC50) fell in the range of 10 to 100 nM.

For `Cn1cc(C#N)c2c(Nc3nc(N[C@@H]4CCCC[C@@H]4N)ncc3C(N)=O)cccc21` [Example 103, 2-((1R,2S)-2-aminocyclohexylamino)-4-(3-cyano-1-methyl-1H-indol-4-ylamino)pyrimidine-5-carboxamide], the IC50 lay in the range of 100 to 1000 nM.

Regarding `NC(=O)c1cnc(N[C@@H]2CCC[C@H](F)[C@@H]2N)nc1Nc1cccc(-n2nccn2)c1` [Example 235, 4-(3-(2H-1,2,3-triazol-2-yl)phenylamino)-2-((1R,2R,3S)-2-amino-3-fluorocyclohexylamino)pyrimidine-5-carboxamide], the half-inhibitory concentration (IC50) was in the range of 10 to 100 nM. For `Cn1ccc2c(Nc3nc(NC[C@@H](N)CC(F)F)ncc3C(N)=O)ccnc21` [Example 94, (S)-2-(2-amino-4,4-difluorobutylamino)-4-(1-methyl-1H-pyrrolo[2,3-b]pyridin-4-ylamino)pyrimidine-5-carboxamide], the concentration for half-maximal inhibition (IC50) fell in the range of 1 to 10 nM. As to `NC(=O)c1cnc(N[C@@H]2CCCC[C@@H]2N)nc1Nc1cccc(-n2ncc(O)n2)c1` [Example 252, 2-(((1R,2S)-2-aminocyclohexyl)amino)-4-((3-(4-hydroxy-2H-1,2,3-triazol-2-yl)phenyl)amino)pyrimidine-5-carboxamide], the IC50 was 1 to 10 nM.
